In patent publication US9744211B2, “Uses of BT lipopeptides as therapeutics for obesity and related diseases” (MYGALAXY LIMITED COMPANY, priority 2012, dated 2017):

System: isolated chicken heterophils
Assay: PMA-stimulated oxidative burst of heterophils in vitro (BT priming assay, with or without anti-TLR2 antibody blocking)
Assay type: cell-based
Details: Group 2: PMA stimulation only, no BT
From the text: However, the in vitro priming assay provides a useful tool for probing possible signaling pathway involved in BT-mediated innate immunomodulation. Since TLRs are conserved receptors playing key roles in innate immunity (Farnell et al., 2003) and TLR2 is the only TLR that has lipopeptide agonists, the same in vitro BT priming assay (Kogut et al., 2012) was employed to investigate whether TLR2 can function as a receptor for BT lipopeptides.
Goat polyclonal antibodies raised against human TLR2 were purchased from Santa Cruz Biotechnology Lab (Santa Cruz, Calif.). For TLR2-blocking, isolated chicken heterophils and the antibodies (2.0 μg/ml) were incubated, prior to the treatments of BT and/or PMA, at 39° C. for 30 minutes.

CCCCCCCCCCCCCC(=O)O[C@@H]1[C@@H](C)[C@@]2(O)[C@@H](C=C(CO)C[C@]3(O)C(=O)C(C)=C[C@@H]23)[C@@H]2C(C)(C)[C@]12OC(C)=O [PMA]
Oxidative burst (RFU + SE) in 10^3: 11.235 ± 0.125 RFU in 10^3
